Measurements: patent US12114655B2, “Agricultural compositions and methods of use thereof” (Valent U.S.A. LLC, priority 2019, dated 2024)

Tested on: corn
Assay: Spray chamber treatment of corn plots grown to 12 inches: efficacy of clethodim with or without mannitol or sorbitol
Type: in vivo
Settings: 14 days after treatment; clethodim 55.4 g/HA, mannitol or sorbitol 6800 g/HA where present; all compositions with 1% v/v Agridex and 0.25% v/v Induce; corn 12 inches in height
Experimental: 4 trials were conducted on the efficacy of clethodim with or without mannitol or sorbitol. Specifically, 4 plots of corn were grown to 12 inches in height. These plots were placed in a spray chamber for treatment. All compositions contained 1% v/v of Agridex® and 0.25% v/v of Induce®. Treatments and results can be found in Table 1, below.

CCSC(C)CC1CC(=O)C(/C(CC)=N/OC/C=C/Cl)=C(O)C1 (stereo not shown) [Clethodim, clethodim]
Days After Treatment (% control) 14: 20.8 % control
